Data on five compounds can be found in article PMC12845422, “Characterization of a Novel Family of Contilisant + Belinostat Multitarget Small Molecules in Glioblastoma” (Pharmaceuticals, 2025).

Data set [1] has as its system GNS166 cells. Description: Cell cycle analysis by flow cytometry. The class given is cell-based. The note with it: 5 μM. On the procedure: Cells were harvested using accutase and washed with PBS. Then, 1·10^6 cells were fixed with 70% cold ethanol at −20 °C for at least 24 h, and incubated with 0.5% Triton X-100 and 25 µg/mL RNase A in PBS for 30 minutes at room temperature. Then, DNA was stained with 25 ng/mL propidium iodide for 15 minutes and samples were analyzed using a CytoFLEX flow cytometer (Beckman Coulter Co., Brea, CA, USA).
A general note: A flow cytometer gives signals particle by particle.

For data set [2], the system named is U87-MG cells. Put plainly: MTT cell viability, U87-MG. The class given is cell-based. As to conditions: Homo sapiens, U-87 MG, 72 h. On the procedure:
(§1) Cells were seeded at a density of 1.5 × 10^3 cells/well (conventional cell lines) or 5 × 10^3 cells/well (GNS and NHA) in 96-well plates and incubated overnight. Cells were then treated with increasing concentrations of MSMs. After 72 h, cells were incubated for 3.5 h with MTT, after which absorbance at 570 nm was measured. IC50 values were calculated using GraphPad Prism software.

Data set [3] has as its system Normal Human Astrocytes (NHAs). Description: MTT cell viability, normal human astrocytes. Format: cell-based. As to conditions: Astrocyte, MSM 0–100 μM, 72 h, read-out: IC50 in NHA. On the procedure: as §1
Data set [4] deals with MKN45 gastric cancer cells. Put plainly: MTT cell viability, MKN45. The class given is cell-based. As to conditions: Homo sapiens, MKN-45; MSM 0–10 μM. On the procedure: as §1
In data set [5] the test system is RWP1 pancreatic cancer cells. Put plainly: MTT cell viability, RWP1. Format: cell-based. The note with it: MSM 0–10 μM. As to the method:
as §1

Another data set deals with H1299 lung cancer cells. Put plainly: MTT cell viability, H1299. As to conditions: Homo sapiens, NCI-H1299; MSM 0–10 μM. The class given is cell-based. As to the method: as §1
The target in another data set is T1, recombinant hMAO-B (Homo sapiens, UniProt P27338).
T1 sequence (P27338 1-520): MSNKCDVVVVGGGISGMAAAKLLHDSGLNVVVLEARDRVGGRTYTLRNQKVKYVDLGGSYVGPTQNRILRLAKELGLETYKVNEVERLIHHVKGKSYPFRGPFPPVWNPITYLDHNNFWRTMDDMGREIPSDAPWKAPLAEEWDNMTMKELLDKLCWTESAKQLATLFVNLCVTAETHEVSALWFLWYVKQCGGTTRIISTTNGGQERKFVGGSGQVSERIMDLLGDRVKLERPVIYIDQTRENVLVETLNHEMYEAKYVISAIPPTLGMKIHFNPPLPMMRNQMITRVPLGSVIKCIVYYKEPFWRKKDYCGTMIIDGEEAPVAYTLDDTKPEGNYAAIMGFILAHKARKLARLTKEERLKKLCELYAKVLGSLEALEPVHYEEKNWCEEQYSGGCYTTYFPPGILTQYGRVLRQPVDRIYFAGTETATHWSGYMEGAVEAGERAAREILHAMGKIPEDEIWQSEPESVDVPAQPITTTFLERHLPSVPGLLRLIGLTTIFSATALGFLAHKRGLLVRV
Description: MAO-B inhibition assay. The class given is biochemical. The note with it: 30 min preincubation, 37 °C. On the procedure:
Subsequently, 200 U/mL horseradish peroxidase, 20 mM Ampliflu Red and 100 mM tyramine hydrochloride (Sigma-Aldrich) were added, and absorbance was measured at 570 nm every 5 min for 30 min. The inhibition percentage was calculated from these absorbance values.

Data set [6] deals with MKN45, RWP1 and H1299 cancer cells. Put plainly: MTT cell viability, summary over gastric, pancreatic and lung cancer cells. The class given is cell-based. The note with it: range over the three cell lines; read-out: IC50 range across MKN45, RWP1 and H1299. On the procedure:
as §1

In data set [7] the test system is U251-MG cells. Put plainly: MTT cell viability, U251-MG. The class given is cell-based. As to the method: as §1
For data set [8], the system named is GNS179 patient-derived GSCs. Put plainly: MTT cell viability, GNS179. Format: cell-based. As to the method: as §1
A further data set is described as follows: In vivo toxicity assay. As to conditions: intraperitoneal, 15 mg/kg. On the procedure:
Briefly, 15 mg/kg of MTP150 or vehicle (DMSO) was administered intraperitoneally to athymic nude-Foxn1^nu mice on a 5-days-on, 2-days-off schedule. Body weight was monitored to assess MSM potential toxicity. At the end-point, macroscopic analysis of the different organs was carried out.

Data set [9] has as its system U87-MG subcutaneous tumors. Description: In vivo carcinogenesis assay, monotherapy, subcutaneous U87-MG tumors. The arrangement: species or system mice. As to the method: (§2) Subcutaneous tumor growth was initiated by injecting 5 × 10^5 cells into both hind flanks of athymic nude-Foxn1^nu mice. Once the tumors reached 25–50 mm^3, mice were allocated to treatment groups by gender and tumor size. For monotherapy, mice were treated intratumorally with vehicle (DMSO dilution) or 200 µM of MTP150 or intraperitoneally with 15 mg/kg, on a 5-days-on, 2-days-off schedule. In combination therapy, 0.5 mg/Kg TMZ or vehicle was administered intraperitoneally during the first 5 days; intratumoral MTP150 or vehicle was delivered with the same schedule. After 4 weeks, mice were sacrificed and tumors were extracted.

Data set [10] in a line: Cell viability (MTT) of TMZ and MTP150 alone and combined. The class given is cell-based. As to conditions: 250 µM TMZ, 0.5 µM MTP150, 72 h. On the procedure: as §1
The next data set deals with subcutaneous tumors. Description: In vivo carcinogenesis assay, combination with TMZ. The arrangement: species or system mice. On the procedure: as §2
The subject of data set [11] is U87-MG cells. Put plainly: Western blot of acetylated α-tubulin and acetylated H3, U87-MG. The class given is cell-based. The note with it: 0.5, 1 and 10 µM. As to the method: (§3) Sodium dodecyl sulfate-polyacrylamide gel electrophoresis was performed. Primary antibodies against HDAC1 (Abcam, Waltham, MA, USA) and HDAC6 (Cell Signaling, Danvers, MA, USA), along with their downstream targets, acetylated H3 (Cell Signaling) and acetylated α-tubulin (Abcam), were used. β-actin (Sigma-Aldrich) served as endogenous control. Secondary antibodies conjugated to horseradish peroxidase (anti-rabbit or anti-mouse; Cell Signaling) were applied. Proteins were detected using the iBright imaging system and either NOVEX ECL Chemi Substrate or SuperSignal West Femto Maximum Sensitivity Substrate (ThermoFisher, Waltham, MA, USA).
On the technique in general: In western blotting, separated proteins are transferred to a membrane and probed.

Data set [12] has as its system GNS166 cells. Put plainly: Western blot of acetylated α-tubulin and acetylated H3, GNS166. The class given is cell-based. As to conditions: increasing concentrations. As to the method: as §3
Data set [13] deals with U251-MG cells. Description: Immunofluorescence proliferation / apoptosis, U251-MG. Format: cell-based. The note with it: dose-dependent. As to the method: (§4) For immunofluorescence assays, cells were seeded at a density of 2 × 10^4 cells/well in 8-well immunofluorescence chambers (LabTek Thermo, Waltham, MA, USA) and incubated overnight. Following 48 h of treatment, cells were fixed with 4% PFA. Primary antibodies against phospho-Histone H3 (p-H3, Abcam) and Caspase 3 (R&D Systems, Minneapolis, MN, USA) and secondary antibodies Alexa Fluor anti-mouse and anti-rabbit (Invitrogen, Carlsbad, CA, USA) were used. Nuclei were stained with DAPI (Sigma-Aldrich). Images were acquired using an Axio Observer 7 epifluorescence microscope, and quantification was performed with Qupath software version 0.6.0.

The subject of a further data set is GNS179 cells. Description: Immunofluorescence proliferation / apoptosis, GNS179. The class given is cell-based. As to conditions: dose-dependent. On the procedure:
as §4

In the next data set the target is BChE (Homo sapiens, UniProt P06276). Put plainly: BChE inhibition, Ellman's colorimetric method. In general terms: Ellman's reagent forms a yellow product with free thiols.
The test system of another data set is HDAC1. Set-up: method as in PMID 40109740. As to conditions: read-out: HDAC inhibitory activity HDAC1 (IC50); cited from earlier work.
The next data set deals with HDAC6. Set-up: method as in PMID 40109740. The note with it: read-out: HDAC inhibitory activity HDAC6 (IC50); cited from earlier work.
The mark [14] stands for this setting: intraperitoneal treatment, immunohistochemistry at end-point.
[15] abbreviates: intratumoral, immunohistochemistry at end-point.

Each structure is given as a SMILES string. Several values for one entry are separate records, joined by “and”; a condition that tells them apart may be missing. Equal values may be shown once. Entries after “also recorded” stand apart in the source; their conditions may differ.

What is called IC50 is the concentration needed to halve the response being measured. For orientation: viability means the share of living cells, or the viability signal relative to a control. Broadly, the Ki is a measure of affinity in units of concentration, obtained from inhibition or displacement. Read a low Ki as higher affinity. Broadly, the inhibition is the percentage by which the read-out fell short of the control.

Chain of BChE (P06276 29-602, species assumed): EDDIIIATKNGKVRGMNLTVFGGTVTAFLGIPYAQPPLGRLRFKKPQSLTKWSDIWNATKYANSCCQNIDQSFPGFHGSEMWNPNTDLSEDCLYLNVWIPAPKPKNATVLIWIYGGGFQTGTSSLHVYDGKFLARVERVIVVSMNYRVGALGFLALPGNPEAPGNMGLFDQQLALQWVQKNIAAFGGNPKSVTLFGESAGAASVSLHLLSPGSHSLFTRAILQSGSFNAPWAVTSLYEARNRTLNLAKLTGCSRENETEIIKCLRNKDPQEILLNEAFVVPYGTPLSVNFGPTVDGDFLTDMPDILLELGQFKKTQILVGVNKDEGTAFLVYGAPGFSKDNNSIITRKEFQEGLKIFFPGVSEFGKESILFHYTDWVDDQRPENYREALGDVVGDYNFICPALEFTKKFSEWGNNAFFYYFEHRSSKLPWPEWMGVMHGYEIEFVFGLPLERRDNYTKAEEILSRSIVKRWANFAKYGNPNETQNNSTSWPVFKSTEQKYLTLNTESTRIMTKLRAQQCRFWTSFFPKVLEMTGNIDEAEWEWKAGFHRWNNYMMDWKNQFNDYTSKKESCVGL
Description for BChE: To assess ChEs inhibition, Ellman’s colorimetric method was followed. […] After incubation, the substrate solution (acetylthiocholine or butyrylthiocholine iodide, Sigma-Aldrich, at 1.5 mM) was added, and absorbance was recorded at 405 nm every minute for 10 min. […] Enzyme kinetics were evaluated with varying substrate and inhibitor concentrations, and the results were plotted as Lineweaver–Burk plots using GraphPad Prism software. The inhibition constant (Ki) was estimated from the intersection on the x-axis in secondary plots.

For `O=C(/C=C/c1cccc(S(=O)(=O)Nc2ccccc2)c1)NO` [Belinostat], in the data set on GNS166 cells [1], the cell cycle alterations entry is “accumulation of cells in the subG0 phase”.
For `COc1ccc2c(ccn2S(=O)(=O)c2cccc(/C=C/C(=O)NO)c2)c1` [MTP142], the half-maximal inhibitory concentration (IC50) with U87-MG cells [2] was determined as 3.22 µM; in data set [3] it was 9.78 µM; in [4] it was 3.27 µM; in data set [5], 0.97 µM; in the data set with H1299 lung cancer cells it was 5.64 µM.
On to `O=C(/C=C/c1cccc(S(=O)(=O)n2ccc3cc(OCCCN4CCCCC4)ccc32)c1)NO` [MTP150], for which the IC50 with U87-MG cells [2] amounted to 0.55 µM; on recombinant hMAO-B, 1.5 µM; in data set [3], 5.72 µM; in [4] it was 0.2 µM; in data set [5] it was 0.1 µM; in the data set on H1299 lung cancer cells it was 0.7 µM. In addition, the IC50 in data set [6] was 0.1 to 0.7 µM; in the data set on U251-MG cells [7] (Homo sapiens, U-251, MTT), 1.02 µM; in the data set on U251-MG cells [7] (MTT) it was 1 µM; in [8], 6.03 µM and 6 µM; against BChE, 8.09 µM. Moreover, the “animal body weight compared to controls” value in “In vivo toxicity assay” (5-days-on 2-days-off, 4 weeks) is recorded as “did not produce any significant changes in animal body weight”. The “macroscopic analysis of post-mortem tissues” value in the data set “In vivo toxicity assay” (end-point) was “did not show clear differences”. Besides, the “oncospheres generated by cells dissociated from treated tumors” value in data set [9] (10 days in the absence of treatment) is given as “significantly fewer oncospheres”. Moreover, the average tumor volume in [9] (intraperitoneal treatment, U87-MG subcutaneous tumors) is on record as ~ 270 mm^3; in data set [9] (intratumoral 200 µM) it was ~ 480 mm^3. Moreover, in [9] (setting [14]), the “acetyl-α-tubulin and acetyl H3 staining in tumors” value was “promotes an increase in both”. The “cleaved Caspase 3 staining in tumors” value in [9] (setting [14]) is given as “increase in apoptosis”. Further, in data set [9] (intratumoral 200 µM), the “reduction in final tumor volume vs control” value is reported as ~ 50%. For the same compound, the “tumor weight, lower mass than controls” value in data set [9] (intratumoral 200 µM, end-point day 39) is recorded as above 40%. For the same compound, in [9] (setting [15]), the “PCNA positive cells in resected tumors” value was “fewer PCNA positive cells”. In addition, the “cleaved Caspase 3 in resected tumors” value in data set [9] (setting [15]) is “increased cleaved Caspase 3”. In data set [9] (relative tumor inhibition), the “tumor inhibition compared with Belinostat” value was “more intense tumor inhibition”. Further, the viability at 72 h in [10] amounted to 37%. In addition, in the data set on subcutaneous tumors (monotherapy and combination with TMZ), the “antitumor activity compared with Belinostat” value is listed as “greater antitumor activity”. The “levels of acetylated α-tubulin and acetylated H3” value with U87-MG cells [11] was “highest levels of acetylated proteins; also recorded: higher levels of acetylated α-tubulin and H3 than both Belinostat and SAHA”; in the data set on GNS166 cells [12], “higher levels of acetylated α-tubulin and H3 than both Belinostat and SAHA”. Besides, the “apoptosis (Caspase 3-positive cells)” value in the data set on U251-MG cells [13] and with GNS179 cells was “increased” throughout. Also, the “proliferation (p-H3- and Ki67-positive cells)” value with U251-MG cells [13] and with GNS179 cells was “reduced” in each case. Further, in the data set with GNS166 cells [1], the cell cycle alterations entry was “accumulation of cells in the subG0 phase”. In addition, affinity on BChE was put at a Ki of 2.51 µM. In addition, on BChE (Lineweaver–Burk plot), the BChE inhibition mechanism entry was “mixed inhibition mechanism”. At BChE (read-out: BChE inhibition), the inhibition at 10 µM was determined as 60%.
As for `O=C(/C=C/c1cccc(S(=O)(=O)n2ccc3cc(OCc4ccccc4)ccc32)c1)NO` [MTP156], the IC50 in the data set with U87-MG cells [2] is 3.13 µM; in data set [3] it was 7.69 µM; in [4] it was 5.74 µM; in data set [5], 1.17 µM; with H1299 lung cancer cells, 6.63 µM; with HDAC1 it was 0.21 µM. Moreover, the IC50 in the data set with HDAC6 is 0.33 µM. Besides, the cell cycle alterations entry in the data set with GNS166 cells [1] is recorded as “accumulation of cells in the subG0 phase”.
As for `Cn1nnc2c(C(N)=O)ncn2c1=O` [TMZ, temozolomide, reference compound], the average tumor volume in the data set with subcutaneous tumors (TMZ 0.5 mg/Kg i.p. first 5 days, intratumoral MTP150 or vehicle) is ~ 580 mm^3.
